Activation data for 78 compounds are collected here from PubChem BioAssay AID743394 (Broad Institute, 2014).

Activity calls are given as the source filed them.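 Rule for the calls: active = 40% activation versus positive control reached by fitted dose-response curve at or below highest valid tested dose; inconclusive = poor fit quality, or flat fit with activation between 30% and 70%; inactive = the rest.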

A short description of one assay: inactive X chromosome reactivation in XiGFP fibroblasts, dose response, imaging, 68-5-11 mouse fibroblasts, GFP, cherry-pick (AID 743394).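 Note: sensitizer 5-aza-dC present in the wells at 0.5 mM final.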 To be noted: 68-5-11 mouse fibroblast XiGFP reporter, % GFP-positive imaging, 3 d; at 19.5 µM (top of the series); cells co-treated with 5-aza-dC sensitizer; scaled: neutral wells 0, ellipticine wells 100.
`Cc1ccc(OCCN2CCN(CC(O)Cn3c4ccccc4c4ccccc43)CC2)cc1` (stereo not drawn): the activation was 5.68% (inactive).

Consider `Cc1occc1C(=O)N/N=C/C(Br)=C\c1ccccc1`, for which the activation was -0.024% (inactive). For `O=C1CSC(c2cccnc2)N1Cc1ccc(Cl)cc1Cl` (stereo not drawn), the activation is -0.022% (inactive). On the same count and under the same terms, the value for `CC(C)N1C(=O)C(=O)N(CC(=O)N2CCc3ccccc32)C1=O` was -0.031% (inactive); that for `COc1ccc(OC)c(/C=C/c2ccc3cccc(O)c3n2)c1` was -0.024% (inactive). Same read-out and setting: the result for `Cc1ccc(S(=O)(=O)N2CCN(C(=O)COC(=O)c3ccccc3OC(F)F)CC2)c(C)c1` reads -0.006% (inactive); that for `Cc1noc(C)c1S(=O)(=O)Nc1ccc2c(c1)C(=O)N([C@H](C)CO)C[C@H](C)[C@H](CN(C)C(=O)Nc1ccc(F)cc1)OCCCC[C@H](C)O2`, 0.022% (inactive).

Take `Cc1ccc(C)c(OCCC(=O)Nc2cc(S(=O)(=O)N3CCCCC3)ccc2C)c1`: the activation is -0.008% (inactive). Still for that read-out and setting: the value for `COc1ccccc1/C=C/C(=O)OCC(=O)NC(=O)NC1CCCC1` was -0.012% (inactive).

For `CC(C)(C)C1CCNC(=O)CC1` (stereo not drawn), the activation is 0.008% (inactive). On the same count and under the same terms, the value for `Cc1noc(C)c1NC(=O)N[C@H]1CC[C@H](CC(=O)N2CCN(C)CC2)O[C@H]1CO` was 0.116% (inactive); that for `NC(=NC(=O)c1cccc(C(F)(F)F)c1)c1ccc(C(F)(F)F)cn1` was 0.408% (inactive); that for `Cn1c2ccccc2c2cnn(CC(=O)Nc3ccccc3Br)c(=O)c21` was 0.034% (inactive). On the same count and under the same terms, the value for `CCOC(=O)c1ccccc1NC(=O)COC(=O)C1CCN(S(=O)(=O)c2ccccc2C(=O)OC)CC1` was 1.06% (inactive); that for `COc1cccc(CNC(=O)C(Cc2ccccc2)n2cccc2)c1` (stereo not drawn) was 0.002% (inactive). Regarding `Cc1cc(NC(=O)c2c(-c3c(Cl)cccc3Cl)noc2C)n(C)n1`, the activation was -0.127% (inactive).

For the compound `CCOC(=O)C1CCN(c2c(NCc3ccc(C(=O)NC4CCCC4)cc3)c(=O)c2=O)CC1`, the activation was -0.034% (inactive). Same read-out and setting: the value for `C[C@H]1CN([C@@H](C)CO)S(=O)(=O)c2ccc(Br)cc2O[C@H]1CN(C)C(=O)c1cccnc1` was -0.033% (inactive); that for `CCC1Oc2ccc(C)cc2N(CC(=O)N2CCCC2)C1=O` (stereo not drawn) was 0.113% (inactive); that for `COc1ccc(COc2ccccc2C(=O)NCc2ccccc2)cc1F` was -0.07% (inactive). Still for that read-out and setting: the result for `Cc1c(CN2CCCC(C(=O)c3cccc(OC(C)C)c3)C2)c(=O)n(-c2ccccc2)n1C` (stereo not drawn) reads -0.016% (inactive); that for `O=C(CC1CC1)N1CC(=O)N2[C@@H](CO)[C@H](c3ccc(C#Cc4ccc(F)cc4)cc3)[C@@H]2C1`, -0.031% (inactive); that for `Cc1n[nH]c(=S)n1/N=C/c1ccc(-c2ccc(Cl)cc2)o1`, 1.87% (inactive).

As to `Nc1ccccc1Sc1ccc(C(F)(F)F)cc1[N+](=O)[O-]`, the activation was 0.953% (inactive).

As for `COc1ccc(C(=O)Nc2c(F)c(F)c(F)c(F)c2F)cc1OC`, the activation was -0.047% (inactive).

On to `Nc1c(-c2ccccc2)c(CN2CCOCC2)nn1-c1ccc(C(=O)O)cc1`, for which the activation was -0.014% (inactive). Same read-out and setting: the value for `Oc1cc2c(c(Cl)c1O)CCNCC2c1ccccc1` (stereo not drawn) was -0.008% (inactive). With `Cc1cccn2c(=O)c3cc(C(=O)NCc4ccc(F)cc4)c(=N)n(CCCN4CCOCC4)c3nc12`, the activation is 0.061% (inactive).

Turning to `COc1ccc(CN(C)C[C@H]2OCCCC[C@H](C)Oc3ccc(NC(=O)Nc4ccc(F)cc4)cc3C(=O)N([C@H](C)CO)C[C@H]2C)cc1`, the activation was 0.981% (inactive). For the compound `CCN1CCN(c2cc3nc(C)n(Cc4ccccc4)c(=O)c3cc2NC(=O)c2ccccc2F)CC1`, the activation is -0.127% (inactive). Turning to `O=[N+]([O-])c1ccc(Sc2nnnn2-c2ccccc2)nc1`, the activation was -0.121% (inactive). Consider `C/C=C/c1ccc(C2[C@H]3CNC[C@@H]2N3Cc2cc(-c3ccccc3)on2)cc1` (stereo partly drawn), for which the activation is -0.031% (inactive). `NC(=S)Nc1ccc(Cl)cc1Cl`: the activation is -0.001% (inactive).

On to `O=C(c1ccc(S(=O)(=O)c2ccc(Cl)cc2)cc1)N1CCOCC1`, for which the activation was 0.117% (inactive).

Turning to `COc1ccc(-n2ncc(Cl)c(Cl)c2=O)cc1`, the activation was -0.032% (inactive).

As for `CN(CC(=O)Nc1ccc(Cl)c(Cl)c1)CC(=O)Nc1ccc2c(c1)OCO2`, the activation is -0.047% (inactive). In the case of `CCOCCCNC(=O)C(c1ccc(C)cc1)N(Cc1cccs1)C(=O)c1ccccn1` (stereo not drawn), the activation was 0.035% (inactive). Same read-out and setting: the result for `Cc1nn(-c2ccccc2)c2ncc(C(=O)c3cc(Cl)ccc3O)cc12` reads 0.1% (inactive); that for `Oc1ccc(Cl)cc1C=Nc1ccc2c3c(cccc13)CC2`, 0.039% (inactive); that for `CCOC(=O)c1ccc(NC(=O)c2ccnn2C)cc1`, -0.044% (inactive). Same read-out and setting: the value for `Cc1cc(C(=O)Nc2ccc(Cl)c(S(=O)(=O)N3CCOCC3)c2)c2ccccc2n1` was -0.053% (inactive). Still for that read-out and setting: the result for `Cc1cc(=O)[nH]c(N/N=C/c2cc(C)n(CC(F)(F)F)c2C)n1` reads 0.184% (inactive); that for `CC(=O)Nc1ccc(S(=O)(=O)N(C)c2ccc(OCC(=O)NCCc3ccccc3F)cc2)cc1`, -0.07% (inactive). Regarding `CCN(CC)c1ccc(/C=C(/C#N)C(=O)NCc2ccccc2)o1`, the activation is 12.4% (inactive).

In the case of `CC(C)CC(=O)Nc1c2c(nn1-c1ccc(F)cc1)CSC2`, the activation was 0.542% (inactive). On the same count and under the same terms, the result for `C/C(=N\NC(=O)c1ccccc1Cl)c1ccccn1` reads 3.5% (inactive); that for `COc1ccc(C2=NOC3(CC(=O)N(c4ccc(F)cc4)C3=O)C2)cc1` (stereo not drawn), 0.015% (inactive); that for `Cc1ccccc1-c1ccc(C2[C@@H]3CN(Cc4cocn4)C[C@H]2N3)cc1` (stereo partly drawn), -0.031% (inactive).

As to `CCOC(=O)Cc1c(C)[nH]n(-c2ccccc2)c1=O`, the activation is 0.085% (inactive). The same measure, in the same setting: the result for `O=C(CCl)N=c1sccn1Cc1cccc2ccccc12` reads -0.053% (inactive); that for `Cc1ccc(N(C)C(=O)C2CCN(S(=O)(=O)c3ccc4c(c3)oc(=O)n4C)CC2)cc1`, 0.016% (inactive). For `COc1ccc2c3c(n(C)c2c1)[C@@H](CO)N(C(=O)NC(C)C)CC31CN(C(C)=O)C1`, the activation is 0.015% (inactive). In the case of `COc1cccc(CNC(=O)CNC(=S)N(Cc2ccccc2)Cc2ccccc2F)c1`, the activation was -0.015% (inactive). Same read-out and setting: the value for `C[C@@H]1CN([C@H](C)CO)C(=O)c2cc(NC(=O)Nc3ccc4c(c3)OCO4)ccc2O[C@@H](C)CCCCO[C@@H]1CN(C)C(=O)Cc1ccccc1` was 0.577% (inactive).

On to `O=C(O)c1cccnc1C(=O)N1CCc2c([nH]c3ccccc23)C1C(F)(F)F` (stereo not drawn), for which the activation is 0.006% (inactive). For the compound `CCCCOc1nc2ccccc2nc1NS(=O)(=O)c1ccc(F)cc1`, the activation is 0.851% (inactive).

Consider `CCc1ccc(NS(=O)(=O)c2cccc3nonc23)cc1`, for which the activation is -0.121% (inactive). On to `CCOC(=O)C1=c2/c(=C/c3ccncc3)c(N)c(C(=O)OC)n2C(=O)C(c2ccncc2)S1` (stereo not drawn), for which the activation is 0.188% (inactive).

Turning to `COCCNC(=O)CSc1nc2scc(-c3ccccc3)c2c(=O)[nH]1`, the activation was -0.001% (inactive).

`O=C1N[C@H](Cc2ccccc2)COCc2cn(nn2)CC[C@@H]1Cc1ccccc1`: the activation is 0.033% (inactive).

`O=C(NC1=C(NC2CCS(=O)(=O)C2)C(=O)c2ccccc2C1=O)c1ccccc1` (stereo not drawn): the activation was -0.047% (inactive). Same read-out and setting: the value for `Cc1c(Nc2cc(Cl)c3nonc3c2[N+](=O)[O-])c(=O)n(-c2ccccc2)n1C` was -0.121% (inactive).

Regarding `NS(=O)(=O)c1cccc(-n2cnnn2)c1`, the activation was 0.065% (inactive). Same read-out and setting: the value for `Cc1cc(=O)[nH]c(N/N=C/c2cc(C)n(-c3ccccc3)c2C)n1` was -0.016% (inactive).

As to `COc1ccccc1N(C)c1cc2c(c3c1ccn3C)C1CCC2C1` (stereo not drawn), the activation was 0.146% (inactive). The same measure, in the same setting: the value for `O=C(NCCO)/C(=C/c1ccco1)NC(=O)c1ccco1` was -0.047% (inactive); that for `CCOC(=O)[C@]12CCC=C1N(Cc1ccccc1)C(=O)[C@H](CC(=O)N1CCSCC1)C2` was -0.008% (inactive); that for `CC(Sc1nnc(-c2ccncc2)n1C)C(=O)Nc1ccc(N2CCOCC2)cc1` (stereo not drawn) was -0.047% (inactive). Still for that read-out and setting: the result for `Cc1cc(NC(=O)CSc2nnc(-c3c[nH]c4ccccc34)n2-c2ccc(F)cc2)no1` reads 0.139% (inactive).

In the case of `COCCCn1c(C)cc(C(=O)COC(=O)CCc2nc3ccccc3c(=O)[nH]2)c1C`, the activation was 0.39% (inactive). The same measure, in the same setting: the value for `COC1=CC(=O)c2nc(Cl)ccc2C1=O` was 5.06% (inactive); that for `CN(C1CCCCC1)S(=O)(=O)c1ccc(C(=O)N2CCN(c3nc4ccccc4s3)CC2)cc1` was 0.125% (inactive); that for `Cc1ccc(S(=O)(=O)NN2C(=O)/C(=C/c3ccccn3)SC2=S)cc1` was 0.025% (inactive). With `C[C@@H]1CCCCO[C@H](CN(C)Cc2ccc3c(c2)OCO3)[C@@H](C)CN([C@H](C)CO)C(=O)c2cc(NS(=O)(=O)c3ccc(F)cc3)ccc2O1`, the activation was 0.107% (inactive). On the same count and under the same terms, the result for `CCc1ccc(NS(=O)(=O)c2ccc3[nH]cc(C(=O)N4CCc5ccccc54)c(=O)c3c2)cc1` reads -0.01% (inactive). On the same count and under the same terms, the value for `COc1ccc2c3c([nH]c2c1)[C@@H](CO)N(Cc1ccccc1F)CC31CN(C(=O)C2CCOCC2)C1` was 0.046% (inactive).

In the case of `Cc1cccc(NCc2ccc(O)c3ncccc23)c1C`, the activation was 0.288% (inactive).

The assay is the same for the next values; noted with them: 68-5-11 mouse fibroblast XiGFP reporter, % GFP-positive imaging, 3 d; at 21 µM (top of the series); cells co-treated with 5-aza-dC sensitizer; scaled: neutral wells 0, ellipticine wells 100.
As to `Cc1noc(C)c1NC(=O)N(C)C[C@@H]1Oc2ccc(NC(=O)C3CC3)cc2CC(=O)N([C@@H](C)CO)C[C@@H]1C`, the activation was -0.023% (inactive).
